From ChEMBL document CHEMBL3046153, “Synthesis and antimicrobial evaluation of 4,5-diaryl-2-[4-(t-amino)-2-butynyl]-2,4-dihydro-3H-1,2,4-triazol-3-ones” (2012)
Values after ≈ are worked out from the molar mass of the structure shown.

Tests used:
Type in all cases: functional
[1] = system: Staphylococcus aureus; assay: Antibacterial activity against Staphylococcus aureus ATCC 29213 after 16 to 18 hr by NCCLS broth macrodilution method
[2] = system: Candida albicans; assay: Antifungal activity against Candida albicans clinical isolate after 24 hr by NCCLS broth macrodilution method
[3] = system: Escherichia coli; assay: Antibacterial activity against Escherichia coli ATCC 25922 after 16 to 18 hr by NCCLS broth macrodilution method
[4] = system: Pseudomonas aeruginosa; assay: Antibacterial activity against Pseudomonas aeruginosa ATCC 27953 after 16 to 18 hr by NCCLS broth macrodilution method

| SMILES | MIC [1] [µg/mL] | MIC [2] [µg/mL] | MIC [3] [µg/mL] | MIC [4] [µg/mL] |
| --- | --- | --- | --- | --- |
| O=c1n(CC#CCN2CCCC2)nc(-c2ccccc2)n1-c1ccccc1 | 25 (≈ 69.7 µM) | 25 (≈ 69.7 µM) | 50 (≈ 139 µM) | 100 (≈ 279 µM) |
| CC1CCCC(C)N1CC#CCn1nc(-c2ccc(Cl)cc2)n(-c2ccccc2)c1=O (stereo unspecified) | 25 (≈ 57.5 µM) | 25 (≈ 57.5 µM) | 25 (≈ 57.5 µM) | 50 (≈ 115 µM) |
| O=c1n(CC#CCN2CCCCCC2)nc(-c2ccccc2)n1-c1cccc2ccccc12 | 25 (≈ 57.3 µM) | 25 (≈ 57.3 µM) | 50 (≈ 115 µM) | 50 (≈ 115 µM) |
| O=c1n(CC#CCN2CCCCCCC2)nc(-c2ccccc2)n1-c1cccc2ccccc12 | 50 (≈ 111 µM) | 12 (≈ 26.6 µM) | 25 (≈ 55.5 µM) | 50 (≈ 111 µM) |
| CC(=O)N1CCN(c2ccc(OCC3COC(Cn4ccnc4)(c4ccc(Cl)cc4Cl)O3)cc2)CC1 (stereo unspecified) [KETOCONAZOLE] |  | 12.5 (≈ 23.5 µM) |  |  |
| CC1COc2c(N3CCN(C)CC3)c(F)cc3c(=O)c(C(=O)O)cn1c23 (stereo unspecified) [OFLOXACIN] | 12.5 (≈ 34.6 µM) |  | 12.5 (≈ 34.6 µM) | 25 (≈ 69.2 µM) |
| CC1CCCN(CC#CCn2nc(-c3ccccc3)n(-c3ccccc3)c2=O)C1 (stereo unspecified) | 12.5 (≈ 32.3 µM) | 12.5 (≈ 32.3 µM) | 12.5 (≈ 32.3 µM) | 50 (≈ 129 µM) |
| CC1CCCC(C)N1CC#CCn1nc(-c2ccccc2)n(-c2cccc3ccccc23)c1=O (stereo unspecified) | 50 (≈ 111 µM) | 50 (≈ 111 µM) | 50 (≈ 111 µM) | 100 (≈ 222 µM) |
| CC1CCCN(CC#CCn2nc(-c3ccccc3)n(-c3cccc4ccccc34)c2=O)C1 (stereo unspecified) | 25 (≈ 57.3 µM) | 50 (≈ 115 µM) | 50 (≈ 115 µM) | 100 (≈ 229 µM) |

Continued by falling MIC [1], values first:

| MIC [1] [µg/mL] | MIC [2] [µg/mL] | MIC [3] [µg/mL] | MIC [4] [µg/mL] | SMILES |
| --- | --- | --- | --- | --- |
| 12.5 (≈ 32.3 µM) | 25 (≈ 64.7 µM) | 50 (≈ 129 µM) | 100 (≈ 259 µM) | CC1CCCCN1CC#CCn1nc(-c2ccccc2)n(-c2ccccc2)c1=O (stereo unspecified) |
| 12.5 (≈ 29.7 µM) | 50 (≈ 119 µM) | 50 (≈ 119 µM) | 100 (≈ 238 µM) | CC1CCCCN1CC#CCn1nc(-c2ccc(Cl)cc2)n(-c2ccccc2)c1=O (stereo unspecified) |
| 12.5 (≈ 30.7 µM) | 25 (≈ 61.4 µM) | 50 (≈ 123 µM) | 100 (≈ 246 µM) | O=c1n(CC#CCN2CCCCC2)nc(-c2ccc(Cl)cc2)n1-c1ccccc1 |
| 12.5 (≈ 31.2 µM) | 25 (≈ 62.4 µM) | 12.5 (≈ 31.2 µM) | 50 (≈ 125 µM) | CC1CCCC(C)N1CC#CCn1nc(-c2ccccc2)n(-c2ccccc2)c1=O (stereo unspecified) |
| 6.25 (≈ 16.2 µM) | 12.5 (≈ 32.3 µM) | 12.5 (≈ 32.3 µM) | 50 (≈ 129 µM) | O=c1n(CC#CCN2CCCCCC2)nc(-c2ccccc2)n1-c1ccccc1 |
| 6.25 (≈ 15.6 µM) | 12.5 (≈ 31.2 µM) | 6.25 (≈ 15.6 µM) | 25 (≈ 62.4 µM) | O=c1n(CC#CCN2CCCCCCC2)nc(-c2ccccc2)n1-c1ccccc1 |
